Assay: Storage stability of Ivacaftor APO-I polymorph at 25±2° C. / 60%±5% RH
Type: physicochemical
Procedure: Ivacaftor APO-I polymorph samples were packed in an inner antistatic polyethylene bag sealed with a cable tie encased within a heat sealed composite aluminum out bag under nitrogen within a HDPE drum. The samples were then tested for stability after storing at 25±2° C. with 60%±5% relative humidity (RH). Impurities, drug concentrations, polymorph stability and other parameters were measured at intervals during the storage.

CC(C)(C)c1cc(C(C)(C)C)c(NC(=O)c2c[nH]c3ccccc3c2=O)cc1O [Ivacaftor APO-I polymorph, N-(2,4-di-tert-butyl-5-hydroxyphenyl)-1,4-dihydro-4-oxoquinoline-3-carboxamide]
Assay (by HPLC) (12 months): 99.8% | Description (12 months): Off white | Assay (by HPLC) (Initial): 99.1% | Description (Initial): Off white | XRPD (polymorph stability) (Initial): APO-I

Source: US9809551B2, “Solid forms of Ivacaftor and processes for the preparation thereof” (Apotex Inc., priority 2013, dated 2017)
